The numbers were not newly measured in patent US12343348B2, “Methods for treating subjects with Prader-Willi syndrome or Smith-Magenis syndrome” (Essentialis, Inc., priority 2014, dated 2025), which cites them from elsewhere.

Data set [1] deals with Kir6.2/SUR1 channel (Rattus norvegicus, UniProt Q09429). The settings on record: Dabrowski, et al., Diabetes 51 (2002).
The target in data set [2] is T1, KATP channel (Homo sapiens, UniProt Q09428).
T1 construct: host or cells: patients with hyperinsulinism or pancreatic insulinoma (endogenous channel)
T1 sequence (Q09428 whole entry): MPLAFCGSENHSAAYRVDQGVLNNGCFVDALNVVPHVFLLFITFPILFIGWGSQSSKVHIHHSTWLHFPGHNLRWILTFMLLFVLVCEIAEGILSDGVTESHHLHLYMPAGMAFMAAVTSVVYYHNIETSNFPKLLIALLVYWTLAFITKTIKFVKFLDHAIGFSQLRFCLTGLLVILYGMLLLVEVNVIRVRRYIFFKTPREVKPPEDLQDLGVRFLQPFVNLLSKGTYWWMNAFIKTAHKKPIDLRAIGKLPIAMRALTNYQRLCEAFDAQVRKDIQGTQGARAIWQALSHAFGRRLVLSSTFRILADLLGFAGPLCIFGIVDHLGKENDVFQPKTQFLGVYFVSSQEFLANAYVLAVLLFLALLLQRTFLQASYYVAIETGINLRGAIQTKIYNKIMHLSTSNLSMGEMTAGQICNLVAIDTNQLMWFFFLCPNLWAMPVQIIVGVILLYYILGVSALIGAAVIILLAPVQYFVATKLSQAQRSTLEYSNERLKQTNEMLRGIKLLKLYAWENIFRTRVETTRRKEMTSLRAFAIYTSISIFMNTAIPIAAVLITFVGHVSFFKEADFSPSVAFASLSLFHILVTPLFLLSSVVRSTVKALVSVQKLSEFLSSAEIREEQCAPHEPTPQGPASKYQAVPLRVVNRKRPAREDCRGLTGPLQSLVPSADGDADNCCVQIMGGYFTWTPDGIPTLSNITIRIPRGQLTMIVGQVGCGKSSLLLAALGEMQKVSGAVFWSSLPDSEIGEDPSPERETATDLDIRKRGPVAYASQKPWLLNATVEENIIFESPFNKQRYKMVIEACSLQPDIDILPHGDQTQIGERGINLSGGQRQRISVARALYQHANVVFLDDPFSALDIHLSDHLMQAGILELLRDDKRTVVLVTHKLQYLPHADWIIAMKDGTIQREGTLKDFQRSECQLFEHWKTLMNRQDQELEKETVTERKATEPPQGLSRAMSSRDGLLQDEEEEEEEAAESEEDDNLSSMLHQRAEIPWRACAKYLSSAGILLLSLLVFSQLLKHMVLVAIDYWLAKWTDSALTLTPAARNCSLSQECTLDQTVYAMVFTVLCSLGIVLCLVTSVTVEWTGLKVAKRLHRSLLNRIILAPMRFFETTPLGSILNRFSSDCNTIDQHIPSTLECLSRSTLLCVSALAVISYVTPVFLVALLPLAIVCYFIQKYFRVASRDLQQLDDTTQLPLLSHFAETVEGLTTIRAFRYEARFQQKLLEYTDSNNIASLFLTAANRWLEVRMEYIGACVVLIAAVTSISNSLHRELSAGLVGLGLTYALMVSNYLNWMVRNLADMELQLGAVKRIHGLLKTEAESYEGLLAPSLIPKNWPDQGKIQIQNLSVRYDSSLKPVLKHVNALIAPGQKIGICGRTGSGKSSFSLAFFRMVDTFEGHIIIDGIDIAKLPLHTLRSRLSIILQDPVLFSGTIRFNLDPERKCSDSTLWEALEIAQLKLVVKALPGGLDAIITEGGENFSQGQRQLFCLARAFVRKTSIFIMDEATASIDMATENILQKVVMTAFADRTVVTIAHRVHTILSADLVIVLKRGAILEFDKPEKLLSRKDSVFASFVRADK
T1 sequence (Q14654 whole entry partner): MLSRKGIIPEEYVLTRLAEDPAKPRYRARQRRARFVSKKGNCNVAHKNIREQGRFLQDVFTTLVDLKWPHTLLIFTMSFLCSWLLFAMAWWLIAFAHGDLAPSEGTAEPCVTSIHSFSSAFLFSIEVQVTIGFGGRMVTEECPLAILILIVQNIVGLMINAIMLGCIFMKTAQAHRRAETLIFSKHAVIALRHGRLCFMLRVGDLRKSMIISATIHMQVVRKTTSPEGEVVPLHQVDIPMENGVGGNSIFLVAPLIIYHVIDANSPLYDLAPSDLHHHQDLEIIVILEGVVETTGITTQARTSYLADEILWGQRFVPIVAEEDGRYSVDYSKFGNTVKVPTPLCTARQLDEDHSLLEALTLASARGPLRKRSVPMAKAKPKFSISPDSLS
The settings on record: patients with hyperinsulinism and patients with pancreatic insulinoma.

Sequence of Kir6.2/SUR1 channel (Q09429 whole entry): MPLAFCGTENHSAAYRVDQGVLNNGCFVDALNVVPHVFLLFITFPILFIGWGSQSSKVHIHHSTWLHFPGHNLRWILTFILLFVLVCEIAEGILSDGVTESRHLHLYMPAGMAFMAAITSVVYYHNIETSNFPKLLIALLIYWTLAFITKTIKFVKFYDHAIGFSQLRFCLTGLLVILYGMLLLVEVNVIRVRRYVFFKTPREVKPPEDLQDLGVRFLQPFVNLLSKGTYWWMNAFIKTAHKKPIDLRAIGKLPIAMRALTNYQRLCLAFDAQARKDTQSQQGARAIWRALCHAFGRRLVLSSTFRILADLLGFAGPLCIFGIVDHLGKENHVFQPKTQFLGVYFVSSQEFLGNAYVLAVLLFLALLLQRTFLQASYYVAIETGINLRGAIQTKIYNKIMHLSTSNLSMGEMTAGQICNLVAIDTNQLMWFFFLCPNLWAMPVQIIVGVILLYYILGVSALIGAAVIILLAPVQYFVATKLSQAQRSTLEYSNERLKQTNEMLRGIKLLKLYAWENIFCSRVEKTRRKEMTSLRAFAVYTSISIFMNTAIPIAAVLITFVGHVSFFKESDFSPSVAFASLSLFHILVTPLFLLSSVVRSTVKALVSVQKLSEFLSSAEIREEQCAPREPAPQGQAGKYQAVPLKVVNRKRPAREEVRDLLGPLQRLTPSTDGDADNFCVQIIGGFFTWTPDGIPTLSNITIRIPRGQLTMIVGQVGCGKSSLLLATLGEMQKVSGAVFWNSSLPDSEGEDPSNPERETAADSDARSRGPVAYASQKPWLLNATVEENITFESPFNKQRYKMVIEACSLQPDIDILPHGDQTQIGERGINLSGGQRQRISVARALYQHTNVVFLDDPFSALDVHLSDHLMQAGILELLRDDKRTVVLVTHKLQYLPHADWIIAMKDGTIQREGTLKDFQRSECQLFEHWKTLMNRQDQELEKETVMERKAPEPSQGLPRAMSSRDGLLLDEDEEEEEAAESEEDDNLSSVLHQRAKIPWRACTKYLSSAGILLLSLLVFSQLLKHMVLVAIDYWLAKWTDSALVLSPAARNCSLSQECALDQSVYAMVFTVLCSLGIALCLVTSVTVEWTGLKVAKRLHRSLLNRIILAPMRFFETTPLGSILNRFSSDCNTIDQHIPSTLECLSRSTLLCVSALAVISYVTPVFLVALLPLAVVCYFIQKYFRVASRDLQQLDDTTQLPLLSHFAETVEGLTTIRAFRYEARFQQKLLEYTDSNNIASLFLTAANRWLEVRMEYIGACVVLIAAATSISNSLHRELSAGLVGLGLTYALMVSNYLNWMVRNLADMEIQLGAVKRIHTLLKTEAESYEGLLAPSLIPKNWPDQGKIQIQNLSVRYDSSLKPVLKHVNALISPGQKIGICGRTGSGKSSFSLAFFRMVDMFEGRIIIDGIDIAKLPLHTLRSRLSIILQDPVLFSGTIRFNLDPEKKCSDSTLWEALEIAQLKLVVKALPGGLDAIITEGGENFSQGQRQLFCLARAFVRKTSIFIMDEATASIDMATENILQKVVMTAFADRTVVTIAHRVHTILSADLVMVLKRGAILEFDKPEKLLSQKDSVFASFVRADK
Sequence of Kir6.2/SUR1 channel (Q61743 whole entry partner): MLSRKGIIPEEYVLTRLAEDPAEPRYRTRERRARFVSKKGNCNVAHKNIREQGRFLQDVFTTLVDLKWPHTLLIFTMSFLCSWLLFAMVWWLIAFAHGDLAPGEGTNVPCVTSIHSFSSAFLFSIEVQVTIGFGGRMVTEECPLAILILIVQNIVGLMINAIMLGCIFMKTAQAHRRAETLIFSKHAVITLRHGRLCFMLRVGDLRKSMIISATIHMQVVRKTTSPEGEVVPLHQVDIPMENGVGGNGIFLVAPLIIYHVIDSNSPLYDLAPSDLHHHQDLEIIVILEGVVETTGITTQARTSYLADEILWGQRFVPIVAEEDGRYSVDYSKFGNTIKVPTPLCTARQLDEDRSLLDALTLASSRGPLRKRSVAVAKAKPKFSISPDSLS

Regarding `COc1ccc2c(c1)S(=O)(=O)N=C(NC(C)C)N2` [3-isopropylamino-7-methoxy-4H-1,2,4,-benzothiadiazine 1,1-dioxide], the “KATP channel opener selectivity” value in data set [1] is on record as “selective Kir6.2/SUR1 channel opener”.

`CC(C)N=C1Nc2cc(Cl)c(Cl)cc2S(=O)(=O)N1` [BPDZ 154]: the KATP channel activation result in data set [2] is recorded as “effective KATP channel activator”.
